According to the NIST ThermoML archive (doi:10.1016/j.jct.2015.08.035):
± gives the expanded uncertainty stated by the source.

Key:
[1] = Crystal; DTA
[2] = Molar enthalpy of transition or fusion; details: Crystal; DSC

CC1=C(O)C(=O)C(C)O1 (configuration not stated) [4-hydroxy-2,5-dimethyl-3(2H)-furanone]
Normal melting temperature [1]: 82.07 ± 1.1 °C
Molar enthalpy of transition or fusion [2]: 4.47 ± 0.263 kcal/mol
